Laboratory results: publication PMC10364322, “Evaluation of chronic drug-induced electrophysiological and cytotoxic effects using human-induced pluripotent stem cell-derived cardiomyocytes (hiPSC-CMs)” (Frontiers in Pharmacology, 2023)
Read-outs that look alike come from different tables or passages of the source.

Test system: hiPSC-CMs (iCell-Cardiomyocytes^2)
Procedure, shortened: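 Spontaneous field potentials and impedance recorded by MEA at 37°C, 5% CO2 in hiPSC-CM monolayers (50 K/well, fibronectin-coated), 5-min baseline before compound; final DMSO 0.1%. Values are percent change from baseline, mean ± SD, compared with DMSO by Wilcoxon-Mann Whitney, interpreted against DMSO tolerance intervals.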

For `CC(C)(Sc1cc(C(C)(C)C)c(O)c(C(C)(C)C)c1)Sc1cc(C(C)(C)C)c(O)c(C(C)(C)C)c1` [Probucol], the “BR (beating rate), % change from baseline” value (shortened to “BR (beating rate), % change”) (0.3 µM, 2h) was 0±1%, the “Beating below threshold, number of observations/total well numbers” value (0.3 µM, 2h) was 0/5 and the “Cessation of beating, number of observations/total well numbers” value (0.3 µM, 2h) was 0/5. For the same molecule, the “EAD, number of observations/total well numbers” value (0.3 µM, 2h) was 0/5, the “FPD (field-potential duration), % change from baseline” value (0.3 µM, 2h) was 2.5±1.9% and the “FPDc (field-potential duration corrected by beat-rate), % change from baseline” value (from here on “FPDc … % change from baseline”) (0.3 µM, 2h) was 2.6±1.7%. The “Flat T-wave-like, number of observations/total well numbers” value (0.3 µM, 2h) was 0/5, the “BR (beating rate), % change” value (0.3 µM, 24h) was 4±2% and the “Beating below threshold, number of observations/total well numbers” value (0.3 µM, 24h) was 0/5. The “Cessation of beating, number of observations/total well numbers” value (0.3 µM, 24h) was 0/5, the “EAD, number of observations/total well numbers” value (0.3 µM, 24h) was 0/5 and the “FPD (field-potential duration), % change from baseline” value (0.3 µM, 24h) was 2.5±6.9%. For the same molecule, the “FPDc … % change from baseline” value (0.3 µM, 24h) was 3.8±6.8%, the “Flat T-wave-like, number of observations/total well numbers” value (0.3 µM, 24h) was 1/5 and the “BR (beating rate), % change” value (0.3 µM, 48h) was -1±1%. For the same molecule, the “Beating below threshold, number of observations/total well numbers” value (0.3 µM, 48h) was 0/5, the “Cessation of beating, number of observations/total well numbers” value (0.3 µM, 48h) was 0/5 and the “EAD, number of observations/total well numbers” value (0.3 µM, 48h) was 0/5. For the same molecule, the “FPD (field-potential duration), % change from baseline” value (0.3 µM, 48h) was 5.1±4.5%, the “FPDc … % change from baseline” value (0.3 µM, 48h) was 4.5±4.4% and the “Flat T-wave-like, number of observations/total well numbers” value (0.3 µM, 48h) was 0/5. For the same molecule, the “BR (beating rate), % change” value (0.3 µM, 72h) was -6±3%, the “Beating below threshold, number of observations/total well numbers” value (0.3 µM, 72h) was 0/5 and the “Cessation of beating, number of observations/total well numbers” value (0.3 µM, 72h) was 0/5. For the same molecule, the “EAD, number of observations/total well numbers” value (0.3 µM, 72h) was 0/5, the “FPD (field-potential duration), % change from baseline” value (0.3 µM, 72h) was 1.8±4.6% and the “FPDc … % change from baseline” value (0.3 µM, 72h) was -0.2±4.7%. The “Flat T-wave-like, number of observations/total well numbers” value (0.3 µM, 72h) was 0/5, the “BR (beating rate), % change” value (0.3 µM, 96h) was 0±7% and the “Beating below threshold, number of observations/total well numbers” value (0.3 µM, 96h) was 0/5. For the same molecule, the “Cessation of beating, number of observations/total well numbers” value (0.3 µM, 96h) was 0/5, the “EAD, number of observations/total well numbers” value (0.3 µM, 96h) was 0/5 and the “FPD (field-potential duration), % change from baseline” value (0.3 µM, 96h) was 2.4±5.7%. The “FPDc … % change from baseline” value (0.3 µM, 96h) was 2.7±6.2%, the “Flat T-wave-like, number of observations/total well numbers” value (0.3 µM, 96h) was 0/5 and the “BR (beating rate), % change” value (1 µM, 2h) was 0±1%. For the same molecule, the “Beating below threshold, number of observations/total well numbers” value (1 µM, 2h) was 0/4, the “Cessation of beating, number of observations/total well numbers” value (1 µM, 2h) was 0/4 and the “EAD, number of observations/total well numbers” value (1 µM, 2h) was 0/4. The “FPD (field-potential duration), % change from baseline” value (1 µM, 2h) was 0.8±4.5%, the “FPDc … % change from baseline” value (1 µM, 2h) was 1.1±4.5% and the “Flat T-wave-like, number of observations/total well numbers” value (1 µM, 2h) was 0/4. The “BR (beating rate), % change” value (1 µM, 24h) was 6±1%, the “Beating below threshold, number of observations/total well numbers” value (1 µM, 24h) was 0/4 and the “Cessation of beating, number of observations/total well numbers” value (1 µM, 24h) was 0/4. For the same molecule, the “EAD, number of observations/total well numbers” value (1 µM, 24h) was 0/4, the “FPD (field-potential duration), % change from baseline” value (1 µM, 24h) was 13±11.4% and the “FPDc … % change from baseline” value (1 µM, 24h) was 15.1±11.7%. The “Flat T-wave-like, number of observations/total well numbers” value (1 µM, 24h) was 0/4, the “BR (beating rate), % change” value (1 µM, 48h) was 0±2% and the “Beating below threshold, number of observations/total well numbers” value (1 µM, 48h) was 0/4. For the same molecule, the “Cessation of beating, number of observations/total well numbers” value (1 µM, 48h) was 0/4, the “EAD, number of observations/total well numbers” value (1 µM, 48h) was 0/4 and the “FPD (field-potential duration), % change from baseline” value (1 µM, 48h) was 12.6±11.7%. The “FPDc … % change from baseline” value (1 µM, 48h) was 12.5±11.6%, the “Flat T-wave-like, number of observations/total well numbers” value (1 µM, 48h) was 0/4 and the “BR (beating rate), % change” value (1 µM, 72h) was 0±5%. The “Beating below threshold, number of observations/total well numbers” value (1 µM, 72h) was 0/4, the “Cessation of beating, number of observations/total well numbers” value (1 µM, 72h) was 0/4 and the “EAD, number of observations/total well numbers” value (1 µM, 72h) was 0/4. The “FPD (field-potential duration), % change from baseline” value (1 µM, 72h) was 8.9±8.5%, the “FPDc … % change from baseline” value (1 µM, 72h) was 8.8±8.8% and the “Flat T-wave-like, number of observations/total well numbers” value (1 µM, 72h) was 0/4. The “BR (beating rate), % change” value (1 µM, 96h) was 2±3%, the “Beating below threshold, number of observations/total well numbers” value (1 µM, 96h) was 0/4 and the “Cessation of beating, number of observations/total well numbers” value (1 µM, 96h) was 0/4. The “EAD, number of observations/total well numbers” value (1 µM, 96h) was 0/4, the “FPD (field-potential duration), % change from baseline” value (1 µM, 96h) was 9.2±9.9% and the “FPDc … % change from baseline” value (1 µM, 96h) was 10.3±10.9%. For the same molecule, the “Flat T-wave-like, number of observations/total well numbers” value (1 µM, 96h) was 0/4, the “BR (beating rate), % change” value (3 µM, 72h) was 6±4% and the “Beating below threshold, number of observations/total well numbers” value (3 µM, 72h) was 0/5. The “Cessation of beating, number of observations/total well numbers” value (3 µM, 72h) was 0/5, the “EAD, number of observations/total well numbers” value (3 µM, 72h) was 0/5 and the “FPD (field-potential duration), % change from baseline” value (3 µM, 72h) was 1.7±4.6%. The “FPDc … % change from baseline” value (3 µM, 72h) was 3.6±3.3%, the “Flat T-wave-like, number of observations/total well numbers” value (3 µM, 72h) was 0/5 and the “BR (beating rate), % change” value (3 µM, 96h) was 14±5 %. The “Beating below threshold, number of observations/total well numbers” value (3 µM, 96h) was 0/5, the “Cessation of beating, number of observations/total well numbers” value (3 µM, 96h) was 0/5 and the “EAD, number of observations/total well numbers” value (3 µM, 96h) was 0/5. The “FPD (field-potential duration), % change from baseline” value (3 µM, 96h) was -4.1±6.5%, the “FPDc … % change from baseline” value (3 µM, 96h) was 0.1±7% and the “Flat T-wave-like, number of observations/total well numbers” value (3 µM, 96h) was 0/5. The “BR (beating rate), % change” value (3 µM, 2h) was 2±4%, the “Beating below threshold, number of observations/total well numbers” value (3 µM, 2h) was 0/5 and the “Cessation of beating, number of observations/total well numbers” value (3 µM, 2h) was 0/5. The “EAD, number of observations/total well numbers” value (3 µM, 2h) was 0/5, the “FPD (field-potential duration), % change from baseline” value (3 µM, 2h) was 3.7±3.5% and the “FPDc … % change from baseline” value (3 µM, 2h) was 4.4±2.3%. For the same molecule, the “Flat T-wave-like, number of observations/total well numbers” value (3 µM, 2h) was 0/5, the “BR (beating rate), % change” value (3 µM, 24h) was 7±0% and the “Beating below threshold, number of observations/total well numbers” value (3 µM, 24h) was 0/5. The “Cessation of beating, number of observations/total well numbers” value (3 µM, 24h) was 0/5, the “EAD, number of observations/total well numbers” value (3 µM, 24h) was 0/5 and the “FPD (field-potential duration), % change from baseline” value (3 µM, 24h) was 8.9±1.5%. The “FPDc … % change from baseline” value (3 µM, 24h) was 11.3±1.4%, the “Flat T-wave-like, number of observations/total well numbers” value (3 µM, 24h) was 0/5 and the “BR (beating rate), % change” value (3 µM, 48h) was 7±2%. The “Beating below threshold, number of observations/total well numbers” value (3 µM, 48h) was 0/5, the “Cessation of beating, number of observations/total well numbers” value (3 µM, 48h) was 0/5 and the “EAD, number of observations/total well numbers” value (3 µM, 48h) was 0/5. The “FPD (field-potential duration), % change from baseline” value (3 µM, 48h) was 2.8±2.5%, the “FPDc … % change from baseline” value (3 µM, 48h) was 4.9±2.3% and the “Flat T-wave-like, number of observations/total well numbers” value (3 µM, 48h) was 0/5. The “BR (beating rate), % change” value (10 µM, 2h) was 1±2%, the “Beating below threshold, number of observations/total well numbers” value (10 µM, 2h) was 0/5 and the “Cessation of beating, number of observations/total well numbers” value (10 µM, 2h) was 0/5. For the same molecule, the “EAD, number of observations/total well numbers” value (10 µM, 2h) was 0/5, the “FPD (field-potential duration), % change from baseline” value (10 µM, 2h) was 5.5±2.1% and the “FPDc … % change from baseline” value (10 µM, 2h) was 6±2.3%. For the same molecule, the “Flat T-wave-like, number of observations/total well numbers” value (10 µM, 2h) was 0/5, the “BR (beating rate), % change” value (10 µM, 24h) was 10±3% and the “Beating below threshold, number of observations/total well numbers” value (10 µM, 24h) was 0/5. The “Cessation of beating, number of observations/total well numbers” value (10 µM, 24h) was 0/5, the “EAD, number of observations/total well numbers” value (10 µM, 24h) was 0/5 and the “FPD (field-potential duration), % change from baseline” value (10 µM, 24h) was 11.3±10%. The “FPDc … % change from baseline” value (10 µM, 24h) was 15.1±11%, the “Flat T-wave-like, number of observations/total well numbers” value (10 µM, 24h) was 0/5 and the “BR (beating rate), % change” value (10 µM, 48h) was 17±3%. For the same molecule, the “Beating below threshold, number of observations/total well numbers” value (10 µM, 48h) was 0/5, the “Cessation of beating, number of observations/total well numbers” value (10 µM, 48h) was 0/5 and the “EAD, number of observations/total well numbers” value (10 µM, 48h) was 0/5. For the same molecule, the “FPD (field-potential duration), % change from baseline” value (10 µM, 48h) was -0.8±13.7%, the “FPDc … % change from baseline” value (10 µM, 48h) was 4.7±14.8% and the “Flat T-wave-like, number of observations/total well numbers” value (10 µM, 48h) was 1/5. The “BR (beating rate), % change” value (10 µM, 72h) was 26±7 %, the “Beating below threshold, number of observations/total well numbers” value (10 µM, 72h) was 0/5 and the “Cessation of beating, number of observations/total well numbers” value (10 µM, 72h) was 0/5. The “EAD, number of observations/total well numbers” value (10 µM, 72h) was 0/5, the “FPD (field-potential duration), % change from baseline” value (10 µM, 72h) was -10.2±17% and the “FPDc … % change from baseline” value (10 µM, 72h) was -2.8±19.3%. The “Flat T-wave-like, number of observations/total well numbers” value (10 µM, 72h) was 1/5, the “BR (beating rate), % change” value (10 µM, 96h) was 48±6 % and the “Beating below threshold, number of observations/total well numbers” value (10 µM, 96h) was 0/5. For the same molecule, the “Cessation of beating, number of observations/total well numbers” value (10 µM, 96h) was 0/5, the “EAD, number of observations/total well numbers” value (10 µM, 96h) was 0/5 and the “FPD (field-potential duration), % change from baseline” value (10 µM, 96h) was -14.5±9.4%. The “FPDc … % change from baseline” value (10 µM, 96h) was -2.5±12.4%, the “Flat T-wave-like, number of observations/total well numbers” value (10 µM, 96h) was 2/5 and the “prolongation of FPD / FPDc” value (all concentrations tested) was “did not induce a statistically significant prolongation of the FPD”.
